This is an account of results in US20240158370A1, “CK1 alpha AND DUAL CK1 alpha / GSPT1 DEGRADING COMPOUNDS” (Innovo Therapeutics, Inc., priority 2022, published 2024).

Bounds are passed on as bounds.

In one assay the target is T1, CK1α (Homo sapiens, UniProt P48729+Q96SW2).
T1 construct: CSNK1A1-HiBit KI HEK293(LgBit) Cells; host or cells: HEK293(LgBit) knock-in cells
The assay can be described thus: HiBiT degradation assay, CK1α, Procedure A. The class given is cell-based. A digest of the protocol:
(§1)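 Six-hour treatment at 37° C, ten doses between 10 μM and 0.005 μM, then HiBiT lytic luminescence. Fitted DC50 and Ymin.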

In the next assay the target is GSPT1 (Homo sapiens, UniProt P15170+Q96SW2). The assay can be described thus: HiBiT degradation assay, GSPT1, Procedure A. The class given is cell-based. On the set-up: HiBit-GSPT1 KI HEK293(LgBit) Cells; host or cells: HEK293(LgBit) knock-in cells. A digest of the protocol:
as §1

GSPT1, sequence (P15170 whole entry): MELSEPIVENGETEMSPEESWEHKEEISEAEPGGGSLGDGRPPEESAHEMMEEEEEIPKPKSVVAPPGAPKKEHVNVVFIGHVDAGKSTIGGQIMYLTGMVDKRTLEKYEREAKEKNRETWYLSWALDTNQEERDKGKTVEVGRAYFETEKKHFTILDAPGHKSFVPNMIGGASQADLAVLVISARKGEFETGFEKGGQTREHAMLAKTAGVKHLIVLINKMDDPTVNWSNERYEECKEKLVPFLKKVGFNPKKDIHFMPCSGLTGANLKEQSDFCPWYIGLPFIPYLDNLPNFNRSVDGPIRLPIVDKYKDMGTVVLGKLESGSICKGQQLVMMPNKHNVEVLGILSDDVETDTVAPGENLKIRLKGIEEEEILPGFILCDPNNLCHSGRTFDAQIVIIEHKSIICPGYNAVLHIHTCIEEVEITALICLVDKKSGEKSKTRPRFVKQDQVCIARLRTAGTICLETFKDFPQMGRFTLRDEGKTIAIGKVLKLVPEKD
GSPT1, sequence (Q96SW2 whole entry): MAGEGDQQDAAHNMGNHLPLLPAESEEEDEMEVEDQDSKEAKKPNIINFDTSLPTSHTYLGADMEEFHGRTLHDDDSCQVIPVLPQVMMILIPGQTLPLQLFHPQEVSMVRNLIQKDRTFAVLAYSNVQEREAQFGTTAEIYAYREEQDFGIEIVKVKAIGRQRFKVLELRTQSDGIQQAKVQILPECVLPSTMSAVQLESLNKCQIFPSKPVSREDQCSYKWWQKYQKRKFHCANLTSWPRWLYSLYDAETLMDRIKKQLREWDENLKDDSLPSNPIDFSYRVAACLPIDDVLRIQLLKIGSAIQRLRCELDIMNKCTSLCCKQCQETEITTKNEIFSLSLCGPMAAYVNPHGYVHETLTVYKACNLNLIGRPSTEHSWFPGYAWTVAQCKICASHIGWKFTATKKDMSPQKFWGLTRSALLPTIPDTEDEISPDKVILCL
GSPT1, sequence (Q16531 whole entry partner): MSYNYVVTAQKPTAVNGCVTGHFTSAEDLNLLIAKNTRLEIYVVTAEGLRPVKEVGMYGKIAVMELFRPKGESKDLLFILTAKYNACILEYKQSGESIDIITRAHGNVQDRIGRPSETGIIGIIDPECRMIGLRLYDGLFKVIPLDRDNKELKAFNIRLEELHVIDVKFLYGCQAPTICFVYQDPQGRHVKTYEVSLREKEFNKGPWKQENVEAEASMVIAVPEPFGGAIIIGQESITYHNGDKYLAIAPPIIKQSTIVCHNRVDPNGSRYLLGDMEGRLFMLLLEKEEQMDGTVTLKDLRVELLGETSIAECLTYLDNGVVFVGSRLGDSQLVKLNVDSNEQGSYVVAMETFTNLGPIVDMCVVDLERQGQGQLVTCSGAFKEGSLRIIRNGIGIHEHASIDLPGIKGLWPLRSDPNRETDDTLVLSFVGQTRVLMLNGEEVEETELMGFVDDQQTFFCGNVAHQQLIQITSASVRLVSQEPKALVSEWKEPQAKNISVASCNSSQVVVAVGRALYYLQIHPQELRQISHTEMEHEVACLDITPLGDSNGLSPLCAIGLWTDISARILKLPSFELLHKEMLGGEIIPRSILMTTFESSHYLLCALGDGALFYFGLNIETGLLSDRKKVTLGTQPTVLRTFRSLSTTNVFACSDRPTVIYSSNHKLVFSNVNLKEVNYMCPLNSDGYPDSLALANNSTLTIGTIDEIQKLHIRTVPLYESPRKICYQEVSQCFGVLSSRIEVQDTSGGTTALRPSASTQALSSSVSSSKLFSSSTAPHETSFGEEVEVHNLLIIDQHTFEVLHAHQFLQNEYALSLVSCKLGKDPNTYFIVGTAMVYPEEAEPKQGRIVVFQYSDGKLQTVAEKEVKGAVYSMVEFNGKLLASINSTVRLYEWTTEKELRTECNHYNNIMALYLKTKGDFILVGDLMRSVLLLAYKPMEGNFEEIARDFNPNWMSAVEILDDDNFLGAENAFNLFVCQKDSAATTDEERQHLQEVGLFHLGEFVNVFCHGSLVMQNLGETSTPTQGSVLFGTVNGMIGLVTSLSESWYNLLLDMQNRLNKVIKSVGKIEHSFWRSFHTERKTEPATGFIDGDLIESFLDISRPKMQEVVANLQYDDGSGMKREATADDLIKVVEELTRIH
T1 sequence (P48729 whole entry): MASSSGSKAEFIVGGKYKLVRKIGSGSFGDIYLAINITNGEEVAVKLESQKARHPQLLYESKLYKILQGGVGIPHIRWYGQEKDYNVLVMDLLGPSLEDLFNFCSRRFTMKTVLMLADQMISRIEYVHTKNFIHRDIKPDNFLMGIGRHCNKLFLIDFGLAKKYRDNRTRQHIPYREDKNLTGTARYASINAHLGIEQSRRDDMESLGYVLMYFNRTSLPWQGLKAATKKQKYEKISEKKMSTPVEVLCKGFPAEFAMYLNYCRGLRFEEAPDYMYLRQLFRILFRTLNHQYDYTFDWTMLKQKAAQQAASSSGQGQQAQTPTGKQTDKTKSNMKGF
T1 sequence (Q96SW2 whole entry): as the sequence (Q96SW2 whole entry) above
T1 sequence (Q16531 whole entry partner): as the sequence (Q16531 whole entry partner) above

In general, DC50 refers to the midpoint of the concentration-degradation curve. Higher therefore signals degradation only at high concentration. As for `COc1ccc(Cl)cc1-c1c(-c2ccc3c(c2)CN(C2CCC(=O)NC2=O)C3=O)ncn1C` (centres unmarked) [Example 274], on CK1α (six hours incubation), the “CK1α Ymin” value is “E (E = >25-75% remaining)” and the half-maximal degradation concentration (DC50) is under 25 nM. Moreover, at GSPT1 (six hours incubation), the DC50 was at least 25 nM and the “GSPT1 Ymin” value is listed as “F (F = >75-100% remaining)”.

Take `Cn1c(C2CCOCC2)nc(-c2ccc3c(c2)CN(C2CCC(=O)NC2=O)C3=O)c1-c1ccccc1` (centres unmarked) [Example 50, 3-(5-(1-methyl-5-phenyl-2-(tetrahydro-2H-pyran-4-yl)-1H-imidazol-4-yl)-1-oxoisoindolin-2-yl)piperidine-2,6-dione]: on CK1α (six hours incubation), the “CK1α Ymin” value is reported as “C (C = 0-10% remaining)” and the DC50 was under 25 nM. Besides, on GSPT1 (six hours incubation), the half-maximal degradation concentration (DC50) is at least 25 nM and the “GSPT1 Ymin” value was “F (F = >75-100% remaining)”.

As to `Cc1c(-c2c(-c3ccc4c(c3)CN(C3CCC(=O)NC3=O)C4=O)ncn2C)cnn1-c1ccccc1` (centres unmarked) [Example 407], at CK1α (six hours), the “CK1α Ymin” value is on record as “C (C = 0-10% remaining)” and the DC50 was under 25 nM. Further, at GSPT1 (six hours), the half-maximal degradation concentration (DC50) is at least 25 nM and the “GSPT1 Ymin” value was “E (E = >25-75% remaining)”.

Consider `Cn1cnc(-c2ccc3c(c2)CN(C2CCC(=O)NC2=O)C3=O)c1-c1cnc(C#N)nc1` (centres unmarked) [Example 325], for which, on CK1α (six hours incubation), the “CK1α Ymin” value is on record as “E (E = >25-75% remaining)” and the DC50 is at least 25 nM. At GSPT1 (six hours incubation), the DC50 was at least 25 nM and the “GSPT1 Ymin” value was “F (F = >75-100% remaining)”.

Turning to `Cn1cnc(-c2ccc3c(c2)CN(C2CCC(=O)NC2=O)C3=O)c1-c1cccc(C(=O)NC2CCCCC2)c1` (centres unmarked) [Example 302], at CK1α (six hours incubation), the “CK1α Ymin” value is “E (E = >25-75% remaining)” and the DC50 is at least 25 nM. For the same compound, on GSPT1 (six hours incubation), the half-maximal degradation concentration (DC50) was at least 25 nM and the “GSPT1 Ymin” value is recorded as “F (F = >75-100% remaining)”.

Consider `O=C1CCC(N2Cc3cc(-c4c[nH]nc4-c4ccccc4)ccc3C2=O)C(=O)N1` (centres unmarked) [Example 5, 3-(1-Oxo-5-(3-phenyl-1H-pyrazol-4-yl)isoindolin-2-yl) piperidine-2,6-dione], for which, on CK1α (six hours incubation), the “CK1α Ymin” value is on record as “D (D = >10- 25% remaining)” and the half-maximal degradation concentration (DC50) is under 25 nM. In addition, at GSPT1 (six hours incubation), the DC50 was at least 25 nM and the “GSPT1 Ymin” value is given as “F (F = >75-100% remaining)”.

As to `CC(C)c1ccccc1-c1c(-c2ccc3c(c2)CN(C2CCC(=O)NC2=O)C3=O)ncn1C` (centres unmarked) [Example 182], at CK1α (six hours incubation), the “CK1α Ymin” value is “E (E = >25-75% remaining)” and the 50% degradation concentration (DC50) was under 25 nM. At GSPT1 (six hours incubation), the 50% degradation concentration (DC50) is at least 25 nM and the “GSPT1 Ymin” value is given as “F (F = >75-100% remaining)”.

Take `Cn1cnc(-c2ccc3c(c2)CN(C2CCC(=O)NC2=O)C3=O)c1-c1ccc(COc2ccccc2)cc1` (centres unmarked) [Example 311]: at CK1α (six hours incubation), the “CK1α Ymin” value is “D (D = >10- 25% remaining)” and the DC50 is under 25 nM. At GSPT1 (six hours incubation), the half-maximal degradation concentration (DC50) was under 25 nM and the “GSPT1 Ymin” value is reported as “E (E = >25-75% remaining)”.

With `Cn1cnc(-c2ccc3c(c2)CN(C2CCC(=O)NC2=O)C3=O)c1-c1ccc(F)c(C(F)(F)F)c1` (centres unmarked) [Example 293], on CK1α (six hours incubation), the “CK1α Ymin” value is “E (E = >25-75% remaining)” and the DC50 is at least 25 nM. In addition, on GSPT1 (six hours incubation), the DC50 is under 25 nM and the “GSPT1 Ymin” value was “F (F = >75-100% remaining)”.

As for `Cc1c(F)cccc1-c1c(-c2ccc3c(c2)CN(C2CCC(=O)NC2=O)C3=O)ncn1C` (centres unmarked) [Example 169], at CK1α (six hours incubation), the “CK1α Ymin” value was “E (E = >25-75% remaining)” and the DC50 was under 25 nM. Also, at GSPT1 (six hours incubation), the DC50 was at least 25 nM and the “GSPT1 Ymin” value is “F (F = >75-100% remaining)”.

In the case of `[2H]C([2H])([2H])n1ncc(-c2ccc3c(c2)CN(C2CCC(=O)NC2=O)C3=O)c1-c1ccccc1` (centres unmarked) [Example 207, 3-(5-(1-(Methyl-d3)-5-phenyl-1H-pyrazol-4-yl)-1-oxoisoindolin-2-yl)piperidine-2,6-dione], on CK1α (six hours incubation), the “CK1α Ymin” value is “D (D = >10- 25% remaining)” and the DC50 was under 25 nM. At GSPT1 (six hours incubation), the DC50 was at least 25 nM and the “GSPT1 Ymin” value is “F (F = >75-100% remaining)”.
